pIC50: −log10 of the molar value.
Assays:
Experiment in all cases: MTT assay, cytotoxicity by cellular proliferation
Format in all cases: cell-based
Mia PaCa = details: Homo sapiens, MIA PaCa-2, cytotoxicity in the light
MCF 7 = details: Homo sapiens, MCF7, cytotoxicity in the light
SCC 172 = details: SCC172, cytotoxicity in the light
HeLa = details: Homo sapiens, cytotoxicity in the light
HCT 116 = details: Homo sapiens, cytotoxicity in the light
[1] = tested on: Breast cancer cells (MDA MB 231); details: Homo sapiens, cytotoxicity in the light
Protocol: [Worded in the source for another cell line; this cell line is reported under the same test.] (§1) 3, (4,5-Dimethylthiazol-2-yl)-2,5-diphenyltetrazolium bromide (MTT) assay is a standard colorimetric assay for measuring cellular proliferation (cell growth). It was used to determine cytotoxicity of the porphyrin derivatives of the general formulae 1. Human cervical oral cancer cells (SCCl31 cells) (5×10^3 cells well^−1) were added to wells of two 96 well microtiter plate. One for dark cytotoxicity and another for light cytotoxicity with 150 μL DMEM (Dulbecco's Modified Eagle Medium) with 10% serum and incubated for 24 h. Then added 3.125 to 25 μM of porphyrin derivatives of the general formulae 1 in serial dilution (stock 100 mM diluted using DPBS (Dulbecco's Phosphate Buffered Saline) for test, 0.025% DMSO (dimethyl sulphoxide) for control and incubated for 3 h and irradiated in one plate using sodium vapor lamp (70 w for 15 min) while the other plate was kept in dark. After photoirradiation, DPBS was aspirated and 150 μL DMEM with 10% serum was added to each well and incubated is for 48 h. After 48 h of incubation, removed the plates from the incubator and added 10 µL of MIT (5 mg/ml stock) to each well of the plate. […] Read the absorbance at 570 nm. Percentage growth inhibition was calculated as % Growth inhibition=(control-test)/control)×100 […]

SiHa = details: Homo sapiens, cytotoxicity in the light
HaCaT = details: Homo sapiens, cytotoxicity in the light
[2] = tested on: oral cancer cells (SCC 131); details: Homo sapiens, SCC131, cytotoxicity in the light
Protocol: as §1

SMILES: Oc1cccc(-c2c3nc(c(-c4cccc(O)c4)c4ccc([nH]4)c(-c4cccc(O)c4)c4nc(c(-c5cccc(O)c5)c5ccc2[nH]5)CC4)C=C3)c1 [FOSCAN, 5, 10, 15, 20-tetrakis (meta-hydroxyphenyl)-chlorin, reference compound]
- pIC50 (Mia PaCa): 4.96
- pIC50 (MCF 7): 4.89
- pIC50 (SCC 172): 4.90
- pIC50 (HeLa): 4.66
- pIC50 (HCT 116): 5.05
- pIC50 [1]: 4.87
- pIC50 (SiHa): 4.65
- pIC50 (HaCaT): 5.10
- pIC50 [2]: 4.80

Source: patent US9040687B2, “Process for the preparaton of novel porphyrin derivatives and their use as PDT agents and fluorescence probes” (COUNCIL OF SCIENTIFIC AND IDUSTRIAL RESEARCH, priority 2010, dated 2015)
